Test system: HeLa thapsigargin-induced death, ATPlite luminescence, 24 h
Experiment: HeLa survival under thapsigargin ER stress – cell-based, HeLa cervical carcinoma, ATP content, SAR follow-up (AID 1356)
Settings: at 25 µM, stronger effect = higher value
[1] = measured here: survival at thapsigargin 15 uM
[2] = measured here: survival at thapsigargin 20 uM
[3] = measured here: survival, thapsigargin level col 9
[4] = measured here: survival, thapsigargin level col 10

Row | Compound | survival [%] | survival [1] [%] | survival [2] [%] | survival [3] [%] | survival [4] [%]
1 | O=C1CC(c2ccccc2)CC2=C1C(c1c(F)cccc1Cl)Nc1ccccc1N2 (stereo not given) | 118 | 89 | 18 | 93 | 99
2 | COc1ccc(C2CC(=O)C3=C(C2)Nc2ccccc2NC3c2cccc(Oc3ccccc3)c2)cc1OC (stereo not given) | 90 | 96 | 102 | 87 | 85
3 | COc1ccc(C2CC(=O)C3=C(C2)Nc2ccccc2NC3c2cccc(Br)c2)cc1OC (stereo not given) | 87 | 93 | 90 | 86 | 92
4 | CCOc1cccc(C2Nc3ccccc3NC3=C2C(=O)CC(c2ccc(OC)cc2)C3)c1 (stereo not given) | 96 | 8 | 3 | 81 | 106
5 | CSc1ccc(C2Nc3ccccc3NC3=C2C(=O)CC(c2ccccc2)C3)cc1 (stereo not given) | 85 | 77 | 23 | 81 | 83
6 | CCOc1cc(C2Nc3ccccc3NC3=C2C(=O)CC(c2ccc(OC)cc2)C3)cc(Cl)c1O (stereo not given) | 129 | 29 | 8 | 90 | 106
7 | COc1ccc(C2CC(=O)C3=C(C2)Nc2ccccc2NC3c2cc(C)ccc2C)cc1 (stereo not given) | 99 | 83 | 24 | 80 | 81
8 | COc1ccc(C2CC(=O)C3=C(C2)Nc2ccccc2NC3c2cccc(C(F)(F)F)c2)cc1OC (stereo not given) | 90 | 100 | 122 | 88 | 90
9 | CC1(C)CC(=O)C2=C(C1)Nc1ccccc1NC2c1ccc(-c2ccccc2)cc1 (stereo not given) | 97 | 106 | 114 | 92 | 88
10 | COc1ccc(C2CC(=O)C3=C(C2)Nc2ccccc2NC3c2ccccc2C(F)(F)F)cc1OC (stereo not given) | 92 | 107 | 72 | 93 | 91
11 | CCCOc1ccc(C2Nc3ccccc3NC3=C2C(=O)CC(c2ccc(OC)c(OC)c2)C3)cc1 (stereo not given) | 91 | 109 | 90 | 88 | 90
